Results on 1 compound are retold here after paper PMC4184702 (Pharmacology Research & Perspectives, 2014).

The target of series [1] is T1, human muscle-type α1β1γδ-nAChR (Homo sapiens, UniProt P02708+P07510+Q07001).
T1 construct: TE671/RD naturally expresses human muscle-type α1*-nAChRs; endogenous in cells; host or cells: TE671/RD human clonal cell line
Description: 86Rb+ ion efflux assay, TE671/RD cells. The series is classed as cell-based. The conditions noted are these: 86Rb+ ion flux assay. An excerpt:
Cell lines naturally or heterologously expressing specific, functional, human nAChR subtypes were used. The human clonal cell line TE671/RD naturally expresses human muscle-type α1*-nAChRs, containing α1, β1, γ, and δ subunits, with function detectable using ^86Rb^+ efflux assays. […] These cells heterologously express human nAChR chimeric (α6/3) subunits (wherein the extracellular, N-terminal, ligand-binding domain of the human nAChR α6 subunit replaces that domain in the nAChR α3 subunit) along with human β2 and β3 subunits. […] Cells were passaged once a week by splitting just-confluent cultures 1/300 (TE671/RD), 1/10 (SH-SY5Y), or 1/40 (transfected SH-EP1) in serum-supplemented medium to maintain log-phase growth.
One newer modification on these techniques involves low temperature incubation before assays to increase the surface expression of high sensitivity (HS) relative to low sensitivity (LS) α4β2 nAChRs and to enhance surface expression of (α6/3)β2β3-nAChRs. […] In brief, this allows us to determine efficacies of test compounds at LS and HS α4β2 nAChRs, respectively, as the ordinate values of the linear regressions at abscissa values of 0% and 100% of sazetidine-A efficacy.
Results are normalized to responses to a fully efficacious concentration of carbamylcholine (see Materials and Methods for details). […]

Another series addresses T2, α2A adrenergic receptor (Homo sapiens, UniProt P08913).
T2 construct: purchased NIMH Psychoactive Drug Screening Program (PDSP)
The experiment in a line: PDSP primary binding, α2A. Conditions: n = 4, read-out: Inhibition (primary binding competition efficacy), α2A. The method, then:
(§1) For experimental details, please refer to the Psychoactive Drug Screening Program (PDSP) web site http://pdsp.med.unc.edu/.
(§2) ^a The default concentration for primary binding experiments is 10 µM (n = 4). ^b Negative inhibition represents a stimulation of binding. ^c BZPR: Benzodiazepine Receptors (rat brain site). ^d DOR: Delta Opioid Receptor; KOR: Kappa Opioid Receptor; MOR: Mu Opioid Receptor. ^e DAT: Dopamine Transporter; NET: Norepinephrine Transporter; SERT: Serotonin Transporter. ^f NMDA: N-methyl-D-aspartate receptor.

Series [2] in a line: Plasma and brain levels after NSF (UHPLC-MS-MS). It counts as in vivo, mouse. Here is the method: The chamber floor is covered with bedding (∼0.5″). […] Samples are stored at −80°C until analysis.
Compound LF-3-99 (10 ng/mL, See Fig. S1 for structure) was used as an internal standard.

Another series relates to Male C57 BL6 mice. The experiment in a line: SmartCube test. The series is classed as in vivo, mouse. The method, then:
Male C57 BL6 mice (Taconic Farms) were used in the SmartCube® assay (PsychoGenics Inc., Tarrytown, NY). Mice were received at 7 weeks old and group-housed in OptiMICE ventilated cages with four mice/cage. Mice were acclimated to the colony room for at least 1 week prior to the first injections. All animals were tested in SmartCube® at 8 10 weeks old.
To acquire initial in vivo evaluation of our nicotinic ligands for behavioral effects relevant to psychiatric diseases, we used SmartCube®, an automated system in which mouse behavior is captured by digital video using novel, proprietary hardware that presents multiple challenges in a single test session and is analyzed with computer algorithms. Digital videos of the subjects are processed with computer vision algorithms to extract more than 1400 dependent measures including frequency and duration of behavioral states such as grooming, rearing, etc., and many other features obtained during the test session. Using machine learning techniques chosen to best separate pharmacological effects of reference compounds, the behavioral signatures of the mutant mice are then assessed quantitatively.
The most dominant of the features collected that define the drug class signature are identified and ranked using complex proprietary bioinformatics algorithms. The outcome of a SmartCube® run is a set of more than 1400 features (behavioral parameters) that can be used for various analyses. Many of these features are correlated (e.g., rearing counts and supported rearing counts). Therefore, we form statistically independent combinations of the original features (further referred to as decorrelated features) that discriminate between the groups more effectively. Next, we apply a proprietary feature ranking algorithm to score each feature discrimination power to weight each feature change by its relevance. The data obtained in this way are used to define drug signatures for known reference compounds and to establish therapeutic class signatures against which a test sample can be compared. The neuropharmacological effects of a test compound can be predicted by similarity to major classes of compounds, such as antipsychotics, anxiolytics, and antidepressants (Roberds et al. [2011]).
Mice are taken in their home cage to the SmartCube® suite of experimental rooms where they remain until they are placed in the apparatus for a single testing session. A standard SmartCube® protocol runs for a single session (∼45 min). After the session mice are group-housed again and brought back to the colony room. Any abnormal behavior is noted. […] At least 12 mice were used in each treatment group.

The next series concerns mGluR5. Description: PDSP primary binding, mGluR5. Conditions: 10 µM, n = 4. Here is the method:
as §1, §2

The mark [3] stands for this setting: 5 mg/kg p.o., day 29, about 50-60 min after pretreatment.

Entries after “also recorded” stand apart in the source; their conditions may differ.

A word on the inhibition: it is the percentage by which the read-out fell short of the control.

T2 sequence (P08913 whole entry): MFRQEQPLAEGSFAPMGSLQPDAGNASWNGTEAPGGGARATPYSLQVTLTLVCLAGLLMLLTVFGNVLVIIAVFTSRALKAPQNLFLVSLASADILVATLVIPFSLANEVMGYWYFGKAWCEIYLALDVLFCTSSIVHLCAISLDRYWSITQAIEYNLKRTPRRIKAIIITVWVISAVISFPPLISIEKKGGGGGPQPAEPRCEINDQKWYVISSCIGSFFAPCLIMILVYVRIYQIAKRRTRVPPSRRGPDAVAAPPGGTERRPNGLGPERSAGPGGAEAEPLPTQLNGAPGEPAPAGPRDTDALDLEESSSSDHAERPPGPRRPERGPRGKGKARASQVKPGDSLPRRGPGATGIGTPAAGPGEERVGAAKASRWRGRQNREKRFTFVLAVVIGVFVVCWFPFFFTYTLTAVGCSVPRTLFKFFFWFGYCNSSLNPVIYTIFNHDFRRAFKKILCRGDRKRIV
T1 sequence (P02708 21-457): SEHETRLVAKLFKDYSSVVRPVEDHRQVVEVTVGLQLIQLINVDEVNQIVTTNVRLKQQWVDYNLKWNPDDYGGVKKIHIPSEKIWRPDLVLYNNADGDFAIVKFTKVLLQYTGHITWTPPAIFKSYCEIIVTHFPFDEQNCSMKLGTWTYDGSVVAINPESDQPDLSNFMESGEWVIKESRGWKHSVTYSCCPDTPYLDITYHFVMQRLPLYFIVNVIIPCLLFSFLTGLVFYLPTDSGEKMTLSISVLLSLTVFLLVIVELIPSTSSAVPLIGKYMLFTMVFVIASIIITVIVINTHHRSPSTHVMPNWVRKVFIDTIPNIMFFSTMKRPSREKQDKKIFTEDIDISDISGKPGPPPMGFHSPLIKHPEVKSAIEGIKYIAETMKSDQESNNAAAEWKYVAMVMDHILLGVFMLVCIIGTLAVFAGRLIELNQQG
T1 sequence (P11230 24-501 partner): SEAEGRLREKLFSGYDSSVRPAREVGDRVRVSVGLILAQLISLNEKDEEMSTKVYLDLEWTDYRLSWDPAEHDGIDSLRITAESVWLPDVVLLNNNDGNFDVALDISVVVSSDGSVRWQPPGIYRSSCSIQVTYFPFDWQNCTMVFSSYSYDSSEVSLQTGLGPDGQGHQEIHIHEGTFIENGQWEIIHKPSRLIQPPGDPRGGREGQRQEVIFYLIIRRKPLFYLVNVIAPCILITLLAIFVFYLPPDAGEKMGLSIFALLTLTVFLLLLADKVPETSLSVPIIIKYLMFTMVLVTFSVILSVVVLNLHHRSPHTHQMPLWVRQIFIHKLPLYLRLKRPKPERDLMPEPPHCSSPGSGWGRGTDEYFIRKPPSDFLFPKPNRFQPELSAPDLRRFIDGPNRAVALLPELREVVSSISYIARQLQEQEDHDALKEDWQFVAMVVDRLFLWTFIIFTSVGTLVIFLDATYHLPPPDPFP
T1 sequence (P07510 23-517): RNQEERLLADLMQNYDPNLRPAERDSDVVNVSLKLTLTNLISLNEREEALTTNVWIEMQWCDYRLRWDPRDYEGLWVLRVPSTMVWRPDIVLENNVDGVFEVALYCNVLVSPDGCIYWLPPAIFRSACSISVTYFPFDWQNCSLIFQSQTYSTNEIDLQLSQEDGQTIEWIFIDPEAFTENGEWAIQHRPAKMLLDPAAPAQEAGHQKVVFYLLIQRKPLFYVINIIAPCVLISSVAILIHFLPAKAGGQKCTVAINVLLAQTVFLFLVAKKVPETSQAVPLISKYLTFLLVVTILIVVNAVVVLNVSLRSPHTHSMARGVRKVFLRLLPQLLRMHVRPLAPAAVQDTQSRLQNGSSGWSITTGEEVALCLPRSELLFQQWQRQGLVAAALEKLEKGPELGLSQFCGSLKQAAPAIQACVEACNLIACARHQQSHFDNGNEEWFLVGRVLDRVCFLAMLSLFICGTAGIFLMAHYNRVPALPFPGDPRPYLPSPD
T1 sequence (Q07001 22-517): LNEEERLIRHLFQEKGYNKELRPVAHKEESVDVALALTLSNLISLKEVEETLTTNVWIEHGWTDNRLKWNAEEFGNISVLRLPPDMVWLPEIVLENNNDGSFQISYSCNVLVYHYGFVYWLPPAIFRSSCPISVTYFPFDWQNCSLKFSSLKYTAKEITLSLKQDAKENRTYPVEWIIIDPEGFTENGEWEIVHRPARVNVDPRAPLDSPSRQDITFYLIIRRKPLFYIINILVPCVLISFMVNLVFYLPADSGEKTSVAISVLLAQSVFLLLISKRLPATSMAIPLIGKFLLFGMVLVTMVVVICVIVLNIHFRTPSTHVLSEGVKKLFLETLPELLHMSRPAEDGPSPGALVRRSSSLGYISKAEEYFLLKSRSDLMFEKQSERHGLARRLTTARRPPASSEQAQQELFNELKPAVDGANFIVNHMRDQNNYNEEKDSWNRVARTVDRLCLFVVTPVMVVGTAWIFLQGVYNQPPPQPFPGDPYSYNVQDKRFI

Regarding `OCCc1cc(-c2cncc(OC[C@@H]3CCN3)c2)on1` [LF-3-88, 2-[5-[5-(2(S)-azetidinylmethoxyl)-3-pyridyl]-3-isoxazolyl]ethanol], the “agonist or antagonist activity at muscle-type α1β1γδ-nAChRs” value in series [1] is recorded as “no significant agonist or antagonist activity”. Moreover, the inhibition at 10 µM on α2A adrenergic receptor is 23.1%. Besides, in series [2] (setting [3]), the Plasma level is reported as 430 ± 172 ng/mL and the brain level is listed as 14 ± 4 ng/g. In series [2] (10 mg/kg p.o., day 29), the Plasma level turned out to be 942 ± 400 ng/mL and the brain level is recorded as 31 ± 11 ng/g. For the same compound, in the series on Male C57 BL6 mice (5 and 10 mg/kg, i.p.), the “SmartCube antidepressant (green) component” value is “antidepressive-like behavioral signatures; also recorded: potential antidepressive-like behavior; also recorded: most pronounced” and the SmartCube side effects entry is “Minimal side effects”. Also, in the series with Male C57 BL6 mice (both tested doses (5 and 10 mg/kg)), the “SmartCube side effect signature” value was “less than 10%”. Further, the SmartCube behavioral signature result with Male C57 BL6 mice (both tested doses, i.p., 15 min preinjection) was “robust CNS drug-like signatures”. Further, the “Inhibition (primary binding competition efficacy), mGluR5” value in the series on mGluR5 turned out to be 6.6%.
